Measured values reported in patent publication US20250243520A1, “PRODUCTION METHOD FOR L-CYCLIC AMINO ACIDS” (UBE CORPORATION, priority 2019, published 2025).
Where two headings read alike, the source gives them in different places.

Tests used:
[1] = system: Morus alba imino acid (imine) reductase MaP2CR, GST-fused, SEQ ID NO: 10 (MaP2CR: SEQ ID NO: 4); experiment: Analysis of enzymatic catalytic activity: reduction of PipC2 with varied NADPH, absorbance at 340 nm (MaP2CR); type: biochemical
[2] = system: Lathyrus japonicus imino acid (imine) reductase LjP2CR, GST-fused, SEQ ID NO: 12 (LjP2CR: SEQ ID NO: 6); experiment: Analysis of enzymatic catalytic activity: reduction of PipC2 with varied NADPH, absorbance at 340 nm (LjP2CR); type: biochemical
[3] = molecular target: T1, Pseudomonas putida PipC2 reductase dpkA (Pseudomonas putida, UniProt Q5FB93); experiment: Literature kinetics of PipC2 reductase dpkA (Muramatsu et al., 2005); type: biochemical; settings: Table 5; literature value; molecular weight 35954
T1 sequence (Q5FB93 whole entry): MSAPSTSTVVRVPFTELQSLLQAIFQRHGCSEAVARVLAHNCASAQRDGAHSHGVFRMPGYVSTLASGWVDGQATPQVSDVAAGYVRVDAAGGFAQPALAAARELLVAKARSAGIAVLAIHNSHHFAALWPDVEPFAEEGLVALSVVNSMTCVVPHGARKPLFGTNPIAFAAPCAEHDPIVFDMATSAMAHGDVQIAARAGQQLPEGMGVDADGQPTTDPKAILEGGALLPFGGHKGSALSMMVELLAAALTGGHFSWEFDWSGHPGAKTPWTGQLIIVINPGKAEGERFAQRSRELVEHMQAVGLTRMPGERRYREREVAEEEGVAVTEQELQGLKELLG

[4] = molecular target: T1, Pseudomonas putida PipC2 reductase dpkA; parameters: NADP Vmax: unit not given here; settings: cited from earlier work
[5] = Enzyme reaction with PipC2 enzyme synthesis solution and *NADPH; products analysed by LCMS and chiral HPLC; type: biochemical; settings: 10 mM *NADPH, 30° C., 120 minutes
Description: An enzyme reaction was carried out using each enzyme solution (purified P2CR recombinant enzyme solution) obtained in Example 1. The reaction was carried out using a 1.5 mL Eppendorf tube as the reaction vessel, and using each enzyme reaction solution in a volume of 100 μL. Since PipC2 which serves as the substrate is not commercially available, one obtained from L-lysine by enzyme synthesis, using the aminotransferase MaALDI obtained in Reference Example 1 to be described later, was used.
The enzyme reaction was carried out using a shaking incubator (manufactured by AS ONE Corporation), at a reaction temperature of 30° C. with shaking at 1,000 rpm. The reaction time was set to 120 minutes. Heating was performed at a reaction temperature of 98° C. for five minutes to inactivate the enzyme, and the reaction was terminated. Subsequently, the reaction solution was centrifuged at 15,000 rpm at room temperature for 10 minutes, and the resulting supernatant was used as a PipC2 enzyme synthesis solution.
Thereafter, the reaction was carried out under the same conditions as the reaction using the enzyme MaALDI described above, to obtain an enzyme reaction product.
Each of the enzyme reaction products was analyzed by liquid chromatography-mass spectrometry (LCMS). First, each sample (enzyme reaction product) was subjected to a derivatization treatment. Using AccQ·Tag Ultra Derivatization Kit (manufactured by Waters Corporation), a mixture of each sample was prepared according to the composition shown in Table 3. The derivatizating reagent solution was added at last. After mixing, the mixture was incubated at 55° C. for 10 minutes.
Each sample which had been subjected to the derivatization treatment was diluted two-fold with pure water, and used as a sample for LCMS analysis.
When the activities of the enzyme reaction products were analyzed by LCMS analysis, it was confirmed that the products had the same retention time as that of L-PipA as the standard, and that novel peaks of the MS pattern were observed. Further, it was unable to detect PipA in the control. […]

[6] = Table 5, values determined by ANEMONA, GST-fused protein
[7] = Table 5, values determined by ANEMONA, GST-fused protein, read-out: NADP Km

## NC(=O)C1=CN([C@@H]2O[C@H](COP(=O)(O)OP(=O)(O)OC[C@H]3O[C@@H](n4cnc5c(N)ncnc54)[C@H](OP(=O)(O)O)[C@@H]3O)[C@@H](O)[C@H]2O)C=CC1 [NADPH, reduced nicotinamide adenine dinucleotide phosphate]
[1]; Hanes-Woolf plot, NADPH 0.5-80 μM, Tris-HCl pH 7.2
  Vmax: 24.00 nmol/min/mg
[1]; Hanes-Woolf plot, NADPH 0.5-80 μM, Tris-HCl pH 7.2, read-out: Km
  Km: 6.16 µM
[1]; Table 5, GST-fused protein, molecular weight 61792
  Activity per one molecule of enzyme kcat: 0.0217 s⁻¹
[1]; [6]
  NADP Vmax: 21
[1]; [7]
  Km: 3.6 µM
[1]; nonlinear regression by ANEMONA, NADPH 0.5-80 μM, Tris-HCl pH 7.2
  Vmax: 21.2 nmol/min/mg
[1]; nonlinear regression by ANEMONA, NADPH 0.5-80 μM, Tris-HCl pH 7.2, read-out: Km
  Km: 3.57 µM
[2]; Hanes-Woolf plot, NADPH 10-500 μM, Tris-HCl pH 7.2
  Vmax: 199.55 nmol/min/mg
[2]; Hanes-Woolf plot, NADPH 10-500 μM, Tris-HCl pH 7.2, read-out: Km
  Km: 170 µM
[2]; Table 5, GST-fused protein, molecular weight 63449
  Activity per one molecule of enzyme kcat: 0.198 s⁻¹
[2]; [6]
  NADP Vmax: 187
[2]; [7]
  Km: 155 µM
[2]; nonlinear regression by ANEMONA, NADPH 10-500 μM, Tris-HCl pH 7.2
  Vmax: 187.3 nmol/min/mg
[2]; nonlinear regression by ANEMONA, NADPH 10-500 μM, Tris-HCl pH 7.2, read-out: Km
  Km: 155 µM
[3]
  Activity per one molecule of enzyme kcat: 0.132 s⁻¹
[4]; Muramatsu et al. 2005
  Vmax: 220 nmol/min/mg
[4]; Muramatsu et al. 2005, read-out: Km
  Km: 140 µM
[4]; Table 5, literature value
  NADP Vmax: 220
[4]; Table 5, literature value, read-out: NADP Km
  Km: 140 µM

B1: AtP2CR: imino acid reductase derived from Arabidopsis thaliana, SEQ ID NO: 2; GST-fused form SEQ ID NO: 8 (protein, listed as Arabidopsis thaliana)
chain: MAALPVFIPAESFPSILSHETLINHFRTNLPKHSSTITSPVRQNYTVSSPSSLLLMPSWSSSSSLPYMGVKLVTYFPHNSSQNLPGIHGSYTLFSSTTGQTLATMDGTVLTLYRTSSVSGLGSKILARDDSQVLIMVGSGALAPHLIKSHLAARPSLRRVIIWNRTPQRAQELAETLSKDPQHKEISFDSHDSLDQIIPLGDIISCATNSTVPLVKGEFLKPGTHLDLAGSFSHEMKECDDNAIQRGSVFVDNDTAMIEAGELAGAFERGVIKREDICGNLVELIKGDKEGRKSSTDITVFKSVGSGTVDLLTAQLVHETYLSRC
[5]
  ability to reduce PipC2 to convert to PipA (LCMS of enzyme reaction products): have the ability to reduce PipC2 to convert to PipA

B2: MaP2CR: imino acid reductase derived from Morus alba, SEQ ID NO: 4; GST-fused form SEQ ID NO: 10 (protein, listed as Morus alba)
chain: MASTTTAITSPIFITTQSFHTILSRQTLMDHFHSSLPTVSASLSTPLRQNHAVSPTSSLLLMPSWSTSPSLPYIGVKLVTYFPQSSTLSLPGIHASYVLFSSATGQTLASMDGTALTLFRTSCVSGLASRILARDDSKVLVMIGAGALAPHLIKAHLTARPGLERVVIWNRTVEKARNLAEQLQQSSGLDGVCFESNGCLEEVVGMGDIVSCATNSEAPLVKGQKLKPGAHLDLVGSFKHSMRECDDEAIQRGRIFVDNEAALVEAGELVGAFERGVITKEDIGGNLVELIMGEKVGRRDSEEVTVFKSVGSAAVDILAAQLVYETYLQQNN
[5]
  ability to reduce PipC2 to convert to PipA (LCMS of enzyme reaction products): have the ability to reduce PipC2 to convert to PipA

B3: LjP2CR: imino acid reductase derived from Lathyrus japonicus, SEQ ID NO: 6; GST-fused form SEQ ID NO: 12 (protein, listed as Lathyrus japonicus)
chain: MASANKDQKTTNTVSSSSSSSSPIFISTENLQTILTHQTLMKHIDSNLPKVSTFLQTPIRQHYSLSPSSSLLLMPSWSSSSSFPYVGVKLVTHFPQNSSINLPGVQGSYVLFNSTTGQTLASMDSTELTLYRTSCVSGLASRYLSRDDSEVLVMVGAGPLAPHLIRAHFSARPSLRKVLIWNRTVEKAEALAKNLRESDEFSLSGLSFEGCGCLNEVVGLGDIVSCATNSEMALVKGERLKVGAHLDLVGSFKPSMKECDDEALKRGKVFVDNEAALVEAGELVGAFERGVIKEDEIEANLVELIRGDKVGRRSSEEITVFKSVGSAVVDMLAAQFVYESYIGK
[5]
  ability to reduce PipC2 to convert to PipA (LCMS of enzyme reaction products): have the ability to reduce PipC2 to convert to PipA
